Measured values reported in patent publication US5208259A, “Diaryl ether hetrocycles” (Imperial Chemical Industries, priority 1989, dated 1993).

Experiments:
5-LO [1] = test: Test b) heparinised human blood challenged with A23187, LTB4 radioimmunoassay; type: cell-based; conditions: A23187, against LTB4
Method: b) An in vitro assay system involving incubating a test compound with heparinised human blood, prior to challenge with the calcium ionophore A23187 and then indirectly measuring the inhibitory effects on 5-L0 by assaying the amount of LTB4 using the specific radioimmunoassay described by Carey and Forder (F. Carey and R. A. Forder, Brit. J. Pharmacol. 1985, 84, 34P) which involves the use of a protein-LTB4 conjugate produced using the procedure of Young et alia (Prostaglandins, 1983, 26(4), 605-613). The effects of a test compound on the enzyme cyclooxygenase (which is involved in the alternative metabolic pathway for arachidonic acid and gives rise to prostaglandins, thromboxanes and related metabolites) may be measured at the same time using the specific radioimmunoassay for thromboxane B2 (TxB2) described by Carey and Forder (see above). This test provides an indication of the effects of a test compound against 5-L0 and also cylooxygenase in the presence of blood cells and proteins. It permits the selectivity of the inhibitory effect on 5-L0 or cyclooxygenase to be assessed.

5-LO [2] = test: Test c) ex vivo assay: oral administration, blood collection, A23187 challenge, radioimmunoassay of LTB4; type: in vivo
Method: c) An ex vivo assay system, which is a variation of test b) above, involving administration of a test compound (usually orally as the suspension produced when a solution of the test compound in dimethylsulphoxide is added to carboxymethylcellulose), blood collection, heparinisation, challenge with A23187 and radioimmunoassay of LTB4 and TxB2. This test provides an indication of the bioavailability of a test compound as an inhibitor of 5-L0 or cyclooxygenase.

5-LO [3] = test: Test g) zymosan-induced liberation of LTB4 within air pouch of male rats; type: in vivo; conditions: 3 h; Test g), rat air pouch, oral
Method: g) An in vivo system involving measuring the effects of a test compound administered orally against the liberation of LTB4 induced by zymosan within an air pouch generated within the subcutaneous tissue of the back of male rats. The rats are anaesthetised and air pouches are formed by the injection of sterile air (20 ml). A further injection of air (10 ml) is similarly given after 3 days). At 6 days after the initial air injection the test compound is administered (usually orally as the suspension produced when a solution of the test compound in dimethylsulphoxide is added to hydroxypropylmethylcellulose), followed by the intrapouch injection of zymosan (1 ml of a 1% suspension in physiological saline). After 3 hours the rats are killed, the air pouches are lavaged with physiological saline, and the specific radioimmunoassay described above is used to assay LTB4 in the washings. This test provides an indication of inhibitory effects against 5-L0 in an inflammatory milieu.

COC1(c2cccc(Sc3ccc4ccccc4c3)c2)CCOCC1 [4-methoxy-4-[3-(naphth-2-ylthio)phenyl]tetrahydropyran]
IC50 (5-LO [1]): < 0.15 µM
ED50 (5-LO [2]): 3 mg/kg
ED50 (5-LO [3]): < 10 mg/kg

CO[C@]1(c2cc(F)cc(Sc3ccc(C(C)(C)C)cc3)c2)CCO[C@@H](C)C1 [(2S,4R)-4-[5-fluoro-3-(4-tert-butylphenylthio)phenyl]-4-methoxy-2-methyltetrahydropyran]
IC50 (5-LO [1]): < 0.15 µM
ED50 (5-LO [2]): 2 mg/kg
ED50 (5-LO [3]): 0.75 mg/kg
